How the values were obtained:
AP2 mRNA = test: Quantification by qRT PCR of AP2 expression in treated plants; format: in vivo, Arabidopsis thaliana; conditions: 100 μM peptide
Experimental: (§1) Quantification by qRT PCR of the expression of different genes in response to 100 μM of different peptides
(§2) (a) Treatment of plants with the peptide AtCOI1alt1; (b) Treatment of plants with the peptide AtAP2alt1; (c) Treatment of plants with the peptide AtEIN2alt1 (d) Treatment of plants with the peptide AtCPK3alt1.
(§3) Quantification of mRNAs was performed by qRT-PCR using appropriate primer pairs selected from the sequences: SEQ ID NOs: 367 to 374. Expression levels for the controls were set at 100. The primers used for the A. euteiches assays are described in Camborde et al (New Phytol. 233:2232-2248. 2022).

AP2 = test: Quantification of AP2 by Western blot in A. thaliana leaves; format: in vivo, Arabidopsis thaliana; conditions: A. thaliana leaves treated for 5 days with 100 μM peptide
Experimental: (§4) (a) Schematic representation of a gene encoding altORFs producing altPEPs. (b) ORF ranking distribution of altPEPs detected by MS. (c) Frequency of altPEPs detected by MS by length ranges. (d) Main root length of A. thaliana seedlings treated with 100 μM peptide for 4 days. (e, f) Quantification of DCL1 expression by RT-qPCR (e) and Western blot using anti-DCL1 antibodies (f) in A. thaliana leaves treated for 5 days with 100 μM peptide. (g, h) Quantification of COI1, AP2, CPK3 (g) and EIN2 (h) by Western blot using specific antibodies in A. thaliana leaves treated for 5 days with 100 μM peptide.
(§5) N. benthamiana plants were treated by spraying the leaves 24 h before harvesting. For Luc assays, 100 μL of MS/2 liquid medium containing the peptides was added to each well. 5 μL of luciferin was added and luciferase activity was read 30 min later using a spectrophotometer. All other assays were performed by spraying or watering the plants. To quantify the protein level induced by cPEPs in Arabidopsis, rosettes were sprayed daily with 100 μM of peptide or its control for 5 days. Leaves were harvested 6 h after the last treatment for western blot analysis. […] Chlorophyll content was measured using the SPAD chlorophylometer (Konica Minolta). Leaf area was measured using ImageJ software. […]

M. truncatula roots = test: Quantification of nodules on M. truncatula roots; format: in vivo, Medicago truncatula; conditions: versus irrelevant peptide
Source text: (a) FRET-FLIM analysis of the interaction between cPEPnsp1-FAM and NSP1 (left) or NSP1ΔcPEP (right) in planta. (b) qRT-PCR quantification of NSP1 expression in M. truncatula roots treated with cPEPnsp1 or Scrambled cPEPnsp1. (c) GUS quantification of peptide-treated M. truncatula roots carrying the Pro NSP1-NSP1-GUS fusion. (d, e) Quantification of NSP1 expression in N. benthamiana leaves after infiltration of different constructs: ‘wild type’ i.e. version of NSP1 wherein the cPEP sequence has been deleted (NSP1 ΔcPEP) or version of NSP1 wherein the cPEP sequence has been replaced by an artificial sequence (NSP1 ΔcPEP-cPEPartificial), with an empty vector (control) or cPEPnsp1 or cPEPartificial. (f, g) Formation of lateral roots of M. truncatula WT seedlings, nsp1 or overexpressing NSP1, in response to cPEPnsp1 or Scrambled cPEPnsp1. (h, i) Quantification of nodules on roots of M. truncatula roots treated with an irrelevant peptide or cPEPskl. […]
In order to verify whether cPEPs can target any protein, the activity of 12 cPEPs targeting 12 different proteins for which antibodies were available was studied and validated in three different plant species. The question was whether the increase in the quantity of proteins observed after treatment with cPEP was sufficient to modulate plant development. […]

A. thaliana seedlings [1] = test: Heat shock resistance test on A. thaliana seedlings; format: in vivo, Arabidopsis thaliana; conditions: 100 μM peptide, 45° C. for 45 min
Experimental: (§6) (a, b) Length of primary roots of A. thaliana seedlings treated with a Scrambled cPEPdcl1 or with a cPEPdcl1. (c) Relative chlorophyll content of A. thaliana seedlings treated with the corresponding peptide. (d) Resumption of growth of A. thaliana seedlings after heat shock at 45° C. for 45 min and treated with the corresponding peptide. (e) Relative lesion area of A. thaliana seedlings infected with B. cinerea and treated with the indicated peptide. (f) Measurement of the flowering day of A. thaliana plants treated with the indicated peptides. (g, h) Flowering day of A. thaliana plants treated with an irrelevant peptide or a mixture of cPEPs (targeting EIN2, BR11, BAK1 and WUS). (i, j) Leaf area of A. thaliana plants treated with an irrelevant peptide or a mixture of cPEPs (targeting EIN2, BR11, BAK1 and WUS).
as §5, with “All other assays were performed by spraying or watering the plants.” left out, “days.” for “days. Leaves were harvested 6 h after the last treatment for western blot analysis.”

DCL1 mRNA = test: Quantification of DCL1 expression by RT-qPCR in A. thaliana leaves; format: in vivo, Arabidopsis thaliana; conditions: A. thaliana leaves treated for 5 days with 100 μM peptide
Experimental: as §4, §3
N. benthamiana plants were treated by spraying the leaves 24 h before harvesting. […] 5 μL of luciferin was added and luciferase activity was read 30 min later using a spectrophotometer. […] To quantify the protein level induced by cPEPs in Arabidopsis, rosettes were sprayed daily with 100 μM of peptide or its control for 5 days. […] Chlorophyll content was measured using the SPAD chlorophylometer (Konica Minolta). Leaf area was measured using ImageJ software. […]

A. thaliana seedlings [2] = test: Main root length of A. thaliana seedlings treated with altPEP; format: in vivo, Arabidopsis thaliana; conditions: A. thaliana seedlings treated with 100 μM peptide for 4 days
Experimental: as §4
To study the biological roles of altPEPs, two types of altPEPs were studied: one well conserved among Brassicaceae, and corresponding to the altORF18 of the DCL1 gene (FIG. 3c), and another, corresponding to the first altORF of the COI1 gene, but not conserved among Brassicaceae. A. thaliana seedlings were treated with the peptide AtDCL1alt18 (SEQ ID NO: 224) and root development analysed, since dcl mutants show longer main roots (Park, W., et al. Curr. Biol. 12, 1484-1495 (2002)).

DCL1 = test: Western blot using anti-DCL1 antibodies in A. thaliana leaves; format: in vivo, Arabidopsis thaliana; conditions: A. thaliana leaves treated for 5 days with 100 μM peptide
Experimental: as §4, §5

EIN2 = test: Quantification of EIN2 by Western blot in A. thaliana leaves; format: in vivo, Arabidopsis thaliana; conditions: A. thaliana leaves treated for 5 days with 100 μM peptide
Experimental: as §4, §5

EIN2 mRNA = test: Quantification by qRT PCR of EIN2 expression in treated plants; format: in vivo, Arabidopsis thaliana; conditions: 100 μM peptide
Experimental: as §1, §2, §3

A. thaliana seedlings [3] = test: Length of primary roots of A. thaliana seedlings treated with cPEP; format: in vivo, Arabidopsis thaliana; conditions: versus Scrambled cPEPdcl1
Experimental: as §6
The work then focused on different A. thaliana proteins involved in different plant functions. […] 12:479-492, 2000), improved the viability of seedlings to heat shock (FIG. 7d). In parallel, several A. thaliana plant defence regulators were targeted, namely AGB1 (SEQ ID NO: 195), MAPKKK3 (SEQ ID NO: 187), JAR1 (SEQ ID NO: 192), MAPKKK5 (SEQ ID NO: 188), ABCG34 (SEQ ID NO: 194) and CPK3 (SEQ ID NO: 162). […] Next, several cPEPs were designed targeting different proteins involved in plant development by measuring the day of flowering. […]

AtAP2alt1 (MGISYLGLWETSLLRWI; AtAP2alt1)
AP2 mRNA expression (qRT PCR) (AP2 mRNA): without detecting any change
AP2 protein level (Western blot) (AP2): increase

cPEPskl (TETVGHEDAS; cPEPskl)
amount of nodules (M. truncatula roots): decrease

cPEPhsp101 (MQDMLNSLLCI; cPEPhsp101) [SEQ ID NO: 404, cPEP targeting the A. thaliana HSP101 protein]
viability of seedlings to heat shock (A. thaliana seedlings [1]): improved

AtDCL1alt18 (MLMLNPPRHHGILQRPTCLSLLLTIRLWNP; AtDCL1alt18)
DCL1 mRNA expression (qRT-PCR) (DCL1 mRNA): no effect
root development (main root length) (A. thaliana seedlings [2]): decrease in root development
DCL1 protein accumulation (Western blot) (DCL1): increased

AtEIN2alt1 (MGCKYRRRCSFRV; AtEIN2alt1)
EIN2 protein level (Western blot) (EIN2): increase
EIN2 mRNA expression (qRT PCR) (EIN2 mRNA): without detecting any change

cPEPdcl1 (SRAFGSVFFSGD; cPEPdcl1)
primary root growth (A. thaliana seedlings [3]): reduction

Reference: patent publication US20260193668A1, “NOVEL PEPTIDES AND USE THEREOF FOR MODULATING PROTEIN ACCUMULATION” (UNIVERSITE TOULOUSE III - PAUL SABATIER, priority 2022, published 2026)
